The values below are quoted from earlier work in US20210251893A1, “Compositions and Methods for Treating Ocular Diseases” (Ocular Therapeutix, Inc., priority 2020, published 2021).

The structures appear in SMILES notation.

In one series the target is FP prostanoid receptor (Homo sapiens, UniProt P43088).
Chain of FP prostanoid receptor (P43088 whole entry): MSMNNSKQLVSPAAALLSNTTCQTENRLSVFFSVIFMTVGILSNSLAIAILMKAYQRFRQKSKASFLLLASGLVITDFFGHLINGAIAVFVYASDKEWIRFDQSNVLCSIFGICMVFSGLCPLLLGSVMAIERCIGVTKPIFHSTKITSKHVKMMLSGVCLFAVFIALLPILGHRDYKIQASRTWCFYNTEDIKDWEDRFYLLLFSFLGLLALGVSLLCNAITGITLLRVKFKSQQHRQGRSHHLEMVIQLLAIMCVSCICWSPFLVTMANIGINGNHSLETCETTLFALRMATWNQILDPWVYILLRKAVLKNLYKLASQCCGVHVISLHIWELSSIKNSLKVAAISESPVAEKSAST

`CC(C)OC(=O)CCC/C=C\C[C@@H]1[C@@H](CC[C@@H](O)CCc2ccccc2)[C@H](O)C[C@@H]1O` [Latanoprost]: the “Solubility in aqueous solutions” value is “relatively low solubility”. Take `CC(C)OC(=O)CCC/C=C\C[C@@H]1[C@@H](/C=C/[C@@H](O)COc2cccc(C(F)(F)F)c2)[C@H](O)C[C@@H]1O` [Travoprost]: the “Affinity for the prostaglandin FP receptor” value at FP prostanoid receptor is given as “high affinity”. For `O=C(O)CCC/C=C\C[C@@H]1[C@@H](/C=C/[C@@H](O)COc2cccc(C(F)(F)F)c2)[C@H](O)C[C@@H]1O` [free acid of travoprost], on FP prostanoid receptor (compared to latanoprost), the “Potency and selectivity for the FP prostanoid receptor” value was “higher potency and greater selectivity”.
